Test system: A549 (Human lung cancer cell line)
Assay: Effect of combination of sulfonamide compound and other antitumor agent (CellTiter-Glo, combination index): A549
[1] = Table 36: Example Compound 1 345 nM + Prexasertib 1.98 nM, molar ratio 1:0.005730
[2] = Table 36: Example Compound 1 345 nM + SCH900776 910 nM, molar ratio 1:2.639
[3] = Table 36: Example Compound 1 517 nM + AZD6738 1037 nM, molar ratio 1:2.005
[4] = Table 36: Example Compound 1 517 nM + Fludarabine nucleoside 5910 nM, molar ratio 1:11.44
[5] = Table 36: Example Compound 1 517 nM + Prexasertib 2.96 nM, molar ratio 1:0.005730
[6] = Table 36: Example Compound 1 517 nM + SCH900776 1360 nM, molar ratio 1:2.639
[7] = Table 36: Example Compound 1 775 nM + AZD6738 1554 nM, molar ratio 1:2.005
[8] = Table 36: Example Compound 1 775 nM + Decitabine 1340 nM, molar ratio 1:1.733
[9] = Table 36: Example Compound 1 775 nM + Fludarabine nucleoside 8870 nM, molar ratio 1:11.44
[10] = Table 36: Example Compound 1 775 nM + Guadecitabine 469 nM, molar ratio 1:0.6048
[11] = Table 36: Example Compound 1 775 nM + Prexasertib 4.44 nM, molar ratio 1:0.005730
[12] = Table 36: Example Compound 1 775 nM + SCH900776 2050 nM, molar ratio 1:2.639
[13] = Table 36: Example Compound 1 1160 nM + AZD6738 2326 nM, molar ratio 1:2.005
[14] = Table 36: Example Compound 1 1160 nM + Cytarabine 110 nM, molar ratio 1:0.09524
[15] = Table 36: Example Compound 1 1160 nM + Decitabine 2010 nM, molar ratio 1:1.733
[16] = Table 36: Example Compound 1 1160 nM + Fludarabine nucleoside 13300 nM, molar ratio 1:11.44
[17] = Table 36: Example Compound 1 1160 nM + Gemcitabine 5.58 nM, molar ratio 1:0.004813
[18] = Table 36: Example Compound 1 1160 nM + Guadecitabine 702 nM, molar ratio 1:0.6048
[19] = Table 36: Example Compound 1 1160 nM + SCH900776 3060 nM, molar ratio 1:2.639
[20] = Table 36: Example Compound 1 1160 nM + Sunitinib 1870 nM, molar ratio 1:1.608
[21] = Table 36: Example Compound 1 1160 nM + Trifluridine 430 nM, molar ratio 1:0.3703
[22] = Table 36: Example Compound 1 1740 nM + 5-Fluorouracil 4300 nM, molar ratio 1:2.469
[23] = Table 36: Example Compound 1 1740 nM + Azacytidine 4080 nM, molar ratio 1:2.344
[24] = Table 36: Example Compound 1 1740 nM + Cabozantinib 5990 nM, molar ratio 1:3.443
[25] = Table 36: Example Compound 1 1740 nM + Cytarabine 166 nM, molar ratio 1:0.09524
[26] = Table 36: Example Compound 1 1740 nM + Decitabine 3020 nM, molar ratio 1:1.733
[27] = Table 36: Example Compound 1 1740 nM + Etoposide 3780 nM, molar ratio 1:2.174
[28] = Table 36: Example Compound 1 1740 nM + Fludarabine nucleoside 19900 nM, molar ratio 1:11.44
[29] = Table 36: Example Compound 1 1740 nM + Gemcitabine 8.37 nM, molar ratio 1:0.004813
[30] = Table 36: Example Compound 1 1740 nM + Guadecitabine 1050 nM, molar ratio 1:0.6048
[31] = Table 36: Example Compound 1 1740 nM + Lapatinib 5990 nM, molar ratio 1:3.443
[32] = Table 36: Example Compound 1 1740 nM + Luminespib 13.5 nM, molar ratio 1:0.007735
[33] = Table 36: Example Compound 1 1740 nM + Midostaurin 250 nM, molar ratio 1:0.1438
[34] = Table 36: Example Compound 1 1740 nM + Olaparib 14800 nM, molar ratio 1:8.494
[35] = Table 36: Example Compound 1 1740 nM + Oxaliplatin 1060 nM, molar ratio 1:0.6082
[36] = Table 36: Example Compound 1 1740 nM + SCH900776 4590 nM, molar ratio 1:2.639
[37] = Table 36: Example Compound 1 1740 nM + Sunitinib 2800 nM, molar ratio 1:1.608
[38] = Table 36: Example Compound 1 1740 nM + Talazoparib 7980 nM, molar ratio 1:4.587
[39] = Table 36: Example Compound 1 1740 nM + Trifluridine 644 nM, molar ratio 1:0.3703
[40] = Table 36: Example Compound 1 2620 nM + Carboplatin 79500 nM, molar ratio 1:30.35
[41] = Table 36: Example Compound 1 2620 nM + Cisplatin 3610 nM, molar ratio 1:3.669
[42] = Table 36: Example Compound 1 2620 nM + Trifluridine 970 nM, molar ratio 1:0.3703
[43] = Table 36: Example Compound 1 3920 nM + Carboplatin 119000 nM, molar ratio 1:30.35
[44] = Table 36: Example Compound 1 3920 nM + Cisplatin 14400 nM, molar ratio 1:3.669
[45] = Table 36: Example Compound 1 5890 nM + Carboplatin 179000 nM, molar ratio 1:30.35
[46] = Table 36: Example Compound 1 8830 nM + Carboplatin 268000 nM, molar ratio 1:30.35

Procedure: Each cell line was seeded at 90 L/well to a 96-well culture plate (Thermo Fisher Scientific, Inc.) according to the above tables. The cell-seeded plate was cultured in an incubator set to 37° C. and 500 CO2. On the day following seeding, varying concentrations of the sulfonamide compound and the other antitumor agent were added in combination to the cells. […] The serial dilutions of each compound, or DW was added at 5μL/well to the plate such that each compound and DW, or the sulfonamide compound and the other antitumor agent were combined. […] The plate after the addition was cultured at 37° C. for 3 days under 5% CO2 conditions.
Three days later, CellTiter-Glo(R) 2.0 Reagent (Promega Corporation) was added at 100 μL/well, and the amount of luminescence was measured using a plate reader EnSpire(R) Multimode Plate Reader (PerkinElmer Co., Ltd.).
An average value from 3 wells was calculated as to each drug condition from the obtained data, and cell survival rate normalized against control wells supplemented with the vehicle (DW) was calculated. A Fa (fractional inhibition) value was calculated by subtracting the cell survival rate from 1.

`Cc1ccc(F)c([C@@H](C)[C@H](NS(=O)(=O)c2ccc(Br)cc2C(N)=O)c2n[nH]c(=O)o2)c1C` [Example 1, 5-bromo-2-(N-((1 S,2R)-2-(6-fluoro-2,3-dimethylphenyl)-1-(5-oxo-4,5-dihydro-1,3,4-oxadiazol-2-yl)propyl)sulfamoyl)benzamide] was tested, and the CI value [1] was 0.363, the Fa value [1] was 0.4283 and the CI value [2] was 0.287. It also gave a Fa value [2] of 0.5875, a CI value [3] of 0.486 and a Fa value [3] of 0.5213. The CI value [4] was 0.818, the Fa value [4] was 0.1823 and the CI value [5] was 0.207. For the same compound, the Fa value [5] was 0.7673, the CI value [6] was 0.250 and the Fa value [6] was 0.7191. For the same compound, the CI value [7] was 0.318, the Fa value [7] was 0.7989 and the CI value [8] was 0.528. It also gave a Fa value [8] of 0.3618, a CI value [9] of 0.559 and a Fa value [9] of 0.5070. The CI value [10] was 0.558, the Fa value [10] was 0.3478 and the CI value [11] was 0.174. For the same compound, the Fa value [11] was 0.8934, the CI value [12] was 0.210 and the Fa value [12] was 0.8457. It also gave a CI value [13] of 0.309, a Fa value [13] of 0.8880 and a CI value [14] of 0.842. The Fa value [14] was 0.4712, the CI value [15] was 0.573 and the Fa value [15] was 0.4748. It also gave a CI value [16] of 0.405, a Fa value [16] of 0.8089 and a CI value [17] of 0.865. It also gave a Fa value [17] of 0.6357, a CI value [18] of 0.627 and a Fa value [18] of 0.4476. The CI value [19] was 0.255, the Fa value [19] was 0.8825 and the CI value [20] was 0.740. For the same compound, the Fa value [20] was 0.7514, the CI value [21] was 0.842 and the Fa value [21] was 0.6401. The CI value [22] was 0.835, the Fa value [22] was 0.7276 and the CI value [23] was 0.820. It also gave a Fa value [23] of 0.6539, a CI value [24] of 0.688 and a Fa value [24] of 0.8307. For the same compound, the CI value [25] was 0.619, the Fa value [25] was 0.7121 and the CI value [26] was 0.627. The Fa value [26] was 0.5994, the CI value [27] was 0.631 and the Fa value [27] was 0.7574. For the same compound, the CI value [28] was 0.537, the Fa value [28] was 0.8431 and the CI value [29] was 0.757. It also gave a Fa value [29] of 0.8623, a CI value [30] of 0.640 and a Fa value [30] of 0.5997. The CI value [31] was 0.400, the Fa value [31] was 0.8672 and the CI value [32] was 0.828. For the same compound, the Fa value [32] was 0.8341, the CI value [33] was 0.624 and the Fa value [33] was 0.8366. For the same compound, the CI value [34] was 0.575, the Fa value [34] was 0.7460 and the CI value [35] was 0.787. It also gave a Fa value [35] of 0.7638, a CI value [36] of 0.411 and a Fa value [36] of 0.8708. It also gave a CI value [37] of 0.811, a Fa value [37] of 0.8380 and a CI value [38] of 0.508. For the same compound, the Fa value [38] was 0.7568, the CI value [39] was 0.696 and the Fa value [39] was 0.8343. It also gave a CI value [40] of 0.519, a Fa value [40] of 0.8844 and a CI value [41] of 0.701. It also gave a Fa value [41] of 0.9341, a CI value [42] of 0.744 and a Fa value [42] of 0.9017. For the same compound, the CI value [43] was 0.474, the Fa value [43] was 0.9458 and the CI value [44] was 0.608. The Fa value [44] was 0.9720, the CI value [45] was 0.627 and the Fa value [45] was 0.9560. The CI value [46] was 0.635 and the Fa value [46] was 0.9773.
